Measurements reported in the NIST ThermoML archive (doi:10.1021/je700521t).

Tests used:
[1] = refractive index (Na D-line) (dimensionless); details: 101.33 kPa, Liquid
[2] = 101.33 kPa, Liquid; for viscosity: Falling or rolling sphere viscometry

CCCCn1cc[n+](C)c1.[O-][Cl+3]([O-])([O-])[O-] [1-butyl-3-methylimidazolium perchlorate]
Details | refractive index, [1] | viscosity, [2] [mPa·s]
283.15 K | 1.4763 | 466.36
288.15 K | 1.4751 | 330.8
293.15 K | 1.474 | 241.56
298.15 K | 1.4725 | 180.26
303.15 K | 1.4712 | 137.85
308.15 K | 1.4696 | 107.28
313.15 K | 1.4685 | 85.75
318.15 K | 1.4667 | 69.52
323.15 K | 1.4655 | 57.22
328.15 K | 1.4642 | 47.78
333.15 K | 1.4627 | 39.9
338.15 K | 1.4615 | 34.14
343.15 K | 1.4602 | 29.49
348.15 K | 1.459 | 25.74
353.15 K | 1.4577 | 22.64

[2], Vibrating tube method
Details | mass density [kg/m3]
283.15 K | 1263.5
288.15 K | 1259.9
293.15 K | 1256.2
298.15 K | 1252.7
303.15 K | 1249.2
308.15 K | 1245.7
313.15 K | 1242.2
318.15 K | 1238.8
323.15 K | 1235.3
328.15 K | 1231.9
333.15 K | 1228.4
338.15 K | 1225
343.15 K | 1221.6
348.15 K | 1218.2
353.15 K | 1214.8

CCCCCCCC[n+]1ccn(C)c1.F[B-](F)(F)F [1-methyl-3-octylimidazolium tetrafluoroborate]
Details | mass density, [2] [kg/m3] | refractive index, [1] | viscosity, [2] [mPa·s]
283.15 K | 1124.9 | 1.4363 | 1037
288.15 K | 1121.4 | 1.435 | 718.75
293.15 K | 1117.9 | 1.4336 | 462.9
298.15 K | 1114.4 | 1.4322 | 334.17
303.15 K | 1110.9 | 1.431 | 246.18
308.15 K | 1107.5 | 1.4288 | 191.95
313.15 K | 1104.1 | 1.4271 | 147.92
318.15 K | 1100.7 | 1.426 | 116.38
323.15 K | 1097.3 | 1.425 | 91.95
328.15 K | 1093.9 | 1.4235 | 74.79
333.15 K | 1090.6 | 1.4222 | 60.95
338.15 K | 1087.2 | 1.421 | 50.88
343.15 K | 1083.9 | 1.4195 | 42.06
348.15 K | 1080.5 | 1.418 | 35.78
353.15 K | 1077.2 | 1.4167 | 30.11
358.15 K | 1073.8 | 1.4155 | 25.87
363.15 K | 1070.5 | 1.4142 | 21.57
